Assays:
[1] = target: T1, human E3 ubiquitin-protein ligase RNF31 (HOIP) (Homo sapiens, UniProt Q96EP0); assay: Cell-free HTRF-based HOIP inhibition assay; assay type: biochemical
T1 sequence (Q96EP0 695-1072 limits assumed): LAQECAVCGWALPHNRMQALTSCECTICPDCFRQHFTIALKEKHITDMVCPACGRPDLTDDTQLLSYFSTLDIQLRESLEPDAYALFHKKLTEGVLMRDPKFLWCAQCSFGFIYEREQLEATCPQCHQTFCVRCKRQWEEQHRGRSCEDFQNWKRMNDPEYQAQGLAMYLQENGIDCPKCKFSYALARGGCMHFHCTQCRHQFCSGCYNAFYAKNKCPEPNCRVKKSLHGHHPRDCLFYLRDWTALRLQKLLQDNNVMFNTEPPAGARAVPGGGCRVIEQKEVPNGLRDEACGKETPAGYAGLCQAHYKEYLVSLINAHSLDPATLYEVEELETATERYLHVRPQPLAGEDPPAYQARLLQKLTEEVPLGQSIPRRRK
Outline: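 HTRF read (ex 337 nm; em 665 and 620 nm) after a 2.5 h, 25° C. ubiquitination step started by adding E2 plus substrates. Before that, E. coli-expressed human HOIP fragment and E1 were incubated 1 h at 25° C. with compound at 100-0.005 μM, 1% DMSO final.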

[2] = system: NF-κB signaling pathway; assay: Cell-based dual luciferase NF-κB reporter assay (HEK293 cells, TNF stimulated); settings: Homo sapiens, HEK293
Outline: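 HEK293 cells transfected with Firefly luciferase and NF-κB-response-element NanoLuc plasmids; compounds at 100–0.005 µM in 1% DMSO. Cells stimulated with 2.5 ng/mL TNF 30 min after compound addition. Firefly and NanoLuc activities read after 6 h by Nano-Glo dual-luciferase detection.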

[3] = system: bladder carcinoma RT4 cell line; assay: TNF-α-induced cytotoxicity assay (CellTiter-Glo viability); assay type: cell-based; settings: Homo sapiens, RT-4, 72 h
Outline: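 RT4 bladder carcinoma cells, 1000 per well, stimulated with 1.25 ng/mL TNFα together with compound for 72 h at 37° C., 5% CO2. Viability read by CellTiter-Glo luminescence, proportional to cellular ATP, as a measure of HOIP-dependent cytotoxicity.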

With `O=C(NC/C=C/S(=O)(=O)c1ccccc1)c1cc2c([nH]c1=O)CCN(C(=O)C1CC1c1ccccc1)C2` (stereo not drawn) [Example 125, N-[(2E)-3-(benzenesulfonyl)prop-2-en-1-yl]-2-oxo-6-(2-phenylcyclopropanecarbonyl)-1,2,5,6,7,8-hexahydro-1,6-naphthyridine-3-carboxamide] the IC50 [1] was ≤ 1 µM, the IC50 [2] was ≤ 10 µM and the IC50 [3] was ≤ 10 µM.
With `COc1ccc(S(=N)(=O)/C=C/CNC(=O)c2cc3c([nH]c2=O)CCCC3)cc1OC` (stereo not drawn) [Example 52, N-[(2E)-3-[(3,4-dimethoxyphenyl)(imino)oxo-λ^6-sulfanyl]prop-2-en-1-yl]-2-oxo-1,2,5,6,7,8-hexahydroquinoline-3-carboxamide] the IC50 [1] was ≤ 1 µM, the IC50 [2] was ≤ 10 µM and the IC50 [3] was ≤ 1 µM.
In the case of `COc1ccc(S(=N)(=O)/C=C/CNC(=O)c2cc3c([nH]c2=O)CCN(C(=O)OCC2CC2)C3)cc1F` (stereo not drawn) [Example 98, cyclopropylmethyl 3-{[(2E)-3-[(3-fluoro-4-methoxyphenyl)(imino)oxo-λ^6-sulfanyl]prop-2-en-1-yl]carbamoyl}-2-oxo-1,2,5,6,7,8-hexahydro-1,6-naphthyridine-6-carboxylate], the IC50 [1] is reported as ≤ 0.1 µM, the IC50 [2] is reported as ≤ 1 µM and the IC50 [3] is reported as ≤ 10 µM.
`Cc1ccc(S(=O)(=O)/C=C/CNC(=O)c2cc3c([nH]c2=O)CCCC3)cc1C` [Example 51, N-[(2E)-3-(3,4-dimethylbenzenesulfonyl)prop-2-en-1-yl]-2-oxo-1,2,5,6,7,8-hexahydroquinoline-3-carboxamide] was tested, and the IC50 [1] was ≤ 1 µM, the IC50 [2] was ≤ 1 µM and the IC50 [3] was ≤ 1 µM.
With `O=C(NC/C=C/S(=O)(=O)c1ccc(Cl)cc1)c1cc2ccccc2[nH]c1=O` [Example 28, N-[(2E)-3-(4-chlorobenzenesulfonyl)prop-2-en-1-yl]-2-oxo-1,2-dihydroquinoline-3-carboxamide] the IC50 [1] was ≤ 0.1 µM, the IC50 [2] was ≤ 1 µM and the IC50 [3] was ≤ 1 µM.
With `CC(C)Oc1ccc(S(=N)(=O)/C=C/CNC(=O)c2cc3c([nH]c2=O)CCCC3)cc1` (stereo not drawn) [Example 138, N-[(2E)-3-[imino(oxo)[4-(propan-2-yloxy)phenyl]-λ^6-sulfanyl]prop-2-en-1-yl]-2-oxo-1,2,5,6,7,8-hexahydroquinoline-3-carboxamide] the IC50 [1] was ≤ 1 µM, the IC50 [2] was ≤ 1 µM and the IC50 [3] was ≤ 1 µM.
For `CC(C)C1CCc2[nH]c(=O)c(C(=O)NC/C=C/S(=O)(=O)c3ccccc3)cc2C1` (stereo not drawn) [Example 46, N-[(2E)-3-(benzenesulfonyl)prop-2-en-1-yl]-2-oxo-6-(propan-2-yl)-1,2,5,6,7,8-hexahydroquinoline-3-carboxamide], the IC50 [1] was ≤ 1 µM, the IC50 [2] was ≤ 1 µM and the IC50 [3] was ≤ 1 µM.
In the case of `COc1c(C)cc(S(=N)(=O)/C=C/CNC(=O)c2cc3c([nH]c2=O)CCCC3)cc1C` (stereo not drawn) [Example 63, N-[(2E)-3-[Imino(4-methoxy-3,5-dimethylphenyl)oxo-λ^6-sulfanyl]prop-2-en-1-yl]-2-oxo-1,2,5,6,7,8-hexahydroquinoline-3-carboxamide], the IC50 [1] is reported as ≤ 1 µM, the IC50 [2] is reported as ≤ 1 µM and the IC50 [3] is reported as ≤ 1 µM.
With `CC1(C)CC1COC(=O)N1CCc2[nH]c(=O)c(C(=O)NC/C=C/S(=O)(=O)c3ccccc3)cc2C1` (stereo not drawn) [Example 73, (2,2-dimethylcyclopropyl)methyl 3-{[(2E)-3-(benzenesulfonyl)prop-2-en-1-yl]carbamoyl}-2-oxo-1,2,5,6,7,8-hexahydro-1,6-naphthyridine-6-carboxylate] the IC50 [1] was ≤ 0.1 µM, the IC50 [2] was ≤ 1 µM and the IC50 [3] was ≤ 1 µM.
In the case of `O=C(NC/C=C/S(=O)(=O)c1ccc(C2CC2)cc1)c1cc2c([nH]c1=O)CCCC2` [Example 55, N-[(2E)-3-(4-cyclopropylbenzenesulfonyl)prop-2-en-1-yl]-2-oxo-1,2,5,6,7,8-hexahydroquinoline-3-carboxamide], the IC50 [1] is reported as ≤ 0.1 µM, the IC50 [2] is reported as ≤ 1 µM and the IC50 [3] is reported as ≤ 1 µM.
`CC(C)(C)CC(=O)N1CCc2[nH]c(=O)c(C(=O)NC/C=C/S(=O)(=O)c3ccccc3)cc2C1` [Example 120, N-[(2E)-3-(benzenesulfonyl)prop-2-en-1-yl]-6-(3,3-dimethylbutanoyl)-2-oxo-1,2,5,6,7,8-hexahydro-1,6-naphthyridine-3-carboxamide] was tested, and the IC50 [1] was ≤ 1 µM, the IC50 [2] was ≤ 10 µM and the IC50 [3] was ≤ 10 µM.
`O=C(NC/C=C/S(=O)(=O)c1ccccc1)c1cc2c([nH]c1=O)CCN(C(=O)c1nc(C3CC3)cs1)C2` [Example 116, N-[(2E)-3-(benzenesulfonyl)prop-2-en-1-yl]-6-(4-cyclopropyl-1,3-thiazole-2-carbonyl)-2-oxo-1,2,5,6,7,8-hexahydro-1,6-naphthyridine-3-carboxamide] was tested, and the IC50 [1] was ≤ 0.1 µM, the IC50 [2] was ≤ 10 µM and the IC50 [3] was ≤ 10 µM.
With `O=C(NC/C=C/S(=O)(=O)c1ccc(Cl)cc1)c1cc2c([nH]c1=O)CCN(C(=O)OCC(F)(F)F)C2` [Example 97, 2,2,2-trifluoroethyl 3-{[(2E)-3-(4-chlorobenzenesulfonyl)prop-2-en-1-yl]carbamoyl}-2-oxo-1,2,5,6,7,8-hexahydro-1,6-naphthyridine-6-carboxylate] the IC50 [1] was ≤ 0.1 µM, the IC50 [2] was ≤ 1 µM and the IC50 [3] was ≤ 10 µM.
For `COc1ccc(S(=N)(=O)/C=C/CNC(=O)c2cc3c([nH]c2=O)CCC(C)C3)cc1F` (stereo not drawn) [Example 142, N-[(2E)-3-[(3-fluoro-4-methoxyphenyl)(imino)oxo-λ^6-sulfanyl]prop-2-en-1-yl]-6-methyl-2-oxo-1,2,5,6,7,8-hexahydroquinoline-3-carboxamide], the IC50 [1] was ≤ 1 µM, the IC50 [2] was ≤ 1 µM and the IC50 [3] was ≤ 1 µM.
In the case of `Cn1ncc2c(CN3CCc4[nH]c(=O)c(C(=O)NC/C=C/S(=O)(=O)c5ccccc5)cc4C3)cccc21` [Example 121, N-[(2E)-3-(benzenesulfonyl)prop-2-en-1-yl]-6-[(1-methyl-1H-indazol-4-yl)methyl]-2-oxo-1,2,5,6,7,8-hexahydro-1,6-naphthyridine-3-carboxamide], the IC50 [1] is reported as ≤ 0.1 µM, the IC50 [2] is reported as ≤ 1 µM and the IC50 [3] is reported as ≤ 10 µM.
`COc1ccc(S(=N)(=O)/C=C/CNC(=O)c2cc3c([nH]c2=O)CCN(CC(F)(F)F)C3)cc1F` (stereo not drawn) [Example 170, N-[(2E)-3-[(3-fluoro-4-methoxyphenyl)(imino)oxo-λ^6-sulfanyl]prop-2-en-1-yl]-2-oxo-6-(2,2,2-trifluoroethyl)-1,2,5,6,7,8-hexahydro-1,6-naphthyridine-3-carboxamide] was tested, and the IC50 [1] was ≤ 1 µM, the IC50 [2] was ≤ 10 µM and the IC50 [3] was ≤ 10 µM.
`COc1ccc(S(=N)(=O)/C=C/CNC(=O)c2cc3c([nH]c2=O)CCC(OC)C3)cc1F` (stereo not drawn) [Example 169, N-[(2E)-3-[(3-fluoro-4-methoxyphenyl)(imino)oxo-λ^6-sulfanyl]prop-2-en-1-yl]-6-methoxy-2-oxo-1,2,5,6,7,8-hexahydroquinoline-3-carboxamide] was tested, and the IC50 [1] was ≤ 1 µM, the IC50 [2] was ≤ 10 µM and the IC50 [3] was ≤ 10 µM.
`O=C(NC/C=C/S(=O)(=O)c1ccc(Br)cc1)c1cc2c([nH]c1=O)CCCC2` [Example 5, N-[(2E)-3-(4-bromobenzenesulfonyl)prop-2-en-1-yl]-2-oxo-1,2,5,6,7,8-hexahydroquinoline-3-carboxamide] was tested, and the IC50 [1] was ≤ 0.1 µM, the IC50 [2] was ≤ 1 µM and the IC50 [3] was ≤ 1 µM.
With `CC(=O)N1CCC(OC(=O)N2CCc3[nH]c(=O)c(C(=O)NC/C=C/S(=O)(=O)c4ccc(Cl)cc4)cc3C2)CC1` [Example 92, 1-acetylpiperidin-4-vi 3-{[(2E)-3-(4-chlorobenzenesulfonyl)prop-2-en-1-yl]carbamoyl}-2-oxo-1,2,5,6,7,8-hexahydro-1,6-naphthyridine-6-carboxylate] the IC50 [1] was ≤ 0.1 µM, the IC50 [2] was ≤ 10 µM and the IC50 [3] was ≤ 100 µM.
For `O=C(NC/C=C/S(=O)(=O)c1ccccc1)c1cc2c([nH]c1=O)CCN(C(=O)OC1CCCCC1)C2` [Example 90, cyclohexyl 3-{[(2E)-3-(benzenesulfonyl)prop-2-en-1-yl]carbamoyl}-2-oxo-1,2,5,6,7,8-hexahydro-1,6-naphthyridine-6-carboxylate], the IC50 [1] was ≤ 0.1 µM, the IC50 [2] was ≤ 1 µM and the IC50 [3] was ≤ 1 µM.
In the case of `COc1ccc(S(=O)(=O)/C=C/CNC(=O)c2cc3c([nH]c2=O)CCCC3)cc1OC` [Example 45, N-[(2E)-3-(3,4-dimethoxybenzenesulfonyl)prop-2-en-1-yl]-2-oxo-1,2,5,6,7,8-hexahydroquinoline-3-carboxamide], the IC50 [1] is reported as ≤ 1 µM, the IC50 [2] is reported as ≤ 1 µM and the IC50 [3] is reported as ≤ 10 µM.
With `O=C(NC/C=C/S(=O)(=O)c1ccccc1)c1cc2c([nH]c1=O)CCN(Cc1ccccc1)C2` [Example 8, N-[(2E)-3-(benzenesulfonyl)prop-2-en-1-yl]-6-benzyl-2-oxo-1,2,5,6,7,8-hexahydro-1,6-naphthyridine-3-carboxamide] the IC50 [1] was ≤ 1 µM, the IC50 [2] was ≤ 1 µM and the IC50 [3] was ≤ 1 µM.
With `O=C(NC/C=C/S(=O)(=O)c1ccccc1Cl)c1cc2c([nH]c1=O)CCCC2` [Example 41, N-[(2E)-3-(2-chlorobenzenesulfonyl)prop-2-en-1-yl]-2-oxo-1,2,5,6,7,8-hexahydroquinoline-3-carboxamide] the IC50 [1] was ≤ 0.1 µM, the IC50 [2] was ≤ 1 µM and the IC50 [3] was ≤ 1 µM.

Source: patent US20260250250A1, “3-(SULPHONYL OR SULFONIMIDOYL)PROP-2-EN-1-YL]-2-OXO-1,2-DIHYDROPYRIDINE-3-CARBOXAMIDE DERIVATIVES” (Flinder Therapeutics B.V., priority 2022, published 2026)
